Source: PMC1079851, “Cloning of the koi herpesvirus (KHV) gene encoding thymidine kinase and its use for a highly sensitive PCR based diagnosis” (BMC Microbiology, 2005)

Target: T1, KHV TK (recombinant thymidine kinase) (Cyprinid herpesvirus 3, UniProt Q8B3A9)
T1 construct: gene CyHV3_ORF55; E. coli ER2566, chitin column
Assay: DE-81 filter paper radiometric kinase assay
Type: biochemical
Conditions: ATP 10.0 mM, MgCl2 2.0 mM, Tris-Cl 140 mM, 37 °C; substrate 5-30 mM; labelled compound (methyl-3H)

SMILES: Cc1cn([C@H]2C[C@H](O)[C@@H](CO)O2)c(=O)[nH]c1=O [methyl-3H Thymidine (dThd)]
- DE-81 filter paper radiometric kinase assay: the enzyme is specifically active using methyl-^3H Thymidine (dThd)
